Measured values taken from publication PMC11173536, “2-Aryladenine Derivatives as a Potent Scaffold for Adenosine Receptor Antagonists: The 6-Morpholino Derivatives” (Molecules, 2024).
Read-outs that look alike come from different tables or passages of the source.

Legend:
[1] = molecular target: T1, human A3 adenosine receptor (Homo sapiens, UniProt P0DMS8); experiment: radioligand competition, [3H]NECA, HeLa-A3 membranes; format: binding
T1 construct: gene ADORA3; full-length receptor
T1 sequence (P0DMS8 1-318): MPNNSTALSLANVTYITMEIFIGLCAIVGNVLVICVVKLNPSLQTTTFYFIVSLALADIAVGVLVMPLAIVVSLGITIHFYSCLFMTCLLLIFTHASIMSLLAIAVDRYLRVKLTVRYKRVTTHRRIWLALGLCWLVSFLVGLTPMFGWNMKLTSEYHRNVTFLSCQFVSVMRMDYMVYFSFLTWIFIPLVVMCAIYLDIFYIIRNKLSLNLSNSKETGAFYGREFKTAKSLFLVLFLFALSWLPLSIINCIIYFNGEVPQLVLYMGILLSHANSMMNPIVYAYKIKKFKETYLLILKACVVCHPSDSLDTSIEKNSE
Text: radioligand competition, [3H]NECA, HeLa-A3 membranes on human A3 adenosine receptor

[2] = molecular target: T2, human A1 adenosine receptor (Homo sapiens, UniProt P30542); experiment: radioligand competition, [3H]DPCPX, CHO-A1 membranes; format: binding
T2 construct: gene ADORA1; full-length receptor
T2 sequence (P30542 1-326): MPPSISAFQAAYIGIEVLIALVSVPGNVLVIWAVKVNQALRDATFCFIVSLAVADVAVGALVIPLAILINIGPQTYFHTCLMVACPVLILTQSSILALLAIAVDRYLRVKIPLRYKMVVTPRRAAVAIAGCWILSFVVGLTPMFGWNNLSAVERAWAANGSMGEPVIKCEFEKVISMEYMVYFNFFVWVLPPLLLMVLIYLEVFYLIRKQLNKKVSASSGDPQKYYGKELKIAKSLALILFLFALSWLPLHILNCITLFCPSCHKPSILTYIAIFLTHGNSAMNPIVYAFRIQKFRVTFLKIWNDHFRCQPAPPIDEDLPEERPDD

[3] = molecular target: T1, human A3 adenosine receptor; experiment: cAMP enzyme immunoassay, antagonism of NECA, CHO-A3 cells; format: cell-based; details: read-out: Potency (pKB) / A3 (converted)
Text: cAMP enzyme immunoassay, antagonism of NECA, CHO-A3 cells on human A3 adenosine receptor

[4] = molecular target: T3, human A2B adenosine receptor (Homo sapiens, UniProt P29275); experiment: radioligand competition, [3H]DPCPX, HEK-293-A2B membranes; format: binding
T3 construct: gene ADORA2B; full-length receptor; membranes of HEK-293-A2B cells (Euroscreen)
T3 sequence (P29275 1-332): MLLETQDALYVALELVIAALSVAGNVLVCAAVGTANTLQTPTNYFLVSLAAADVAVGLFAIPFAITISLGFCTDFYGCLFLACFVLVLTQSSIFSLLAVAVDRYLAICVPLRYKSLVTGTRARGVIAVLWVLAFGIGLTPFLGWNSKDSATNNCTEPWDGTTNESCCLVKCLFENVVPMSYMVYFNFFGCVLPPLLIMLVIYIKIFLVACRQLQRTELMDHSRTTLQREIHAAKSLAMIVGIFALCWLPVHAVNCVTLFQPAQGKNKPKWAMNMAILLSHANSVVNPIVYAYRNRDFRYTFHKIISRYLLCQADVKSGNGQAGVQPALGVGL
Text: radioligand competition, [3H]DPCPX, HEK-293-A2B membranes on human A2B adenosine receptor

[5] = molecular target: T2, human A1 adenosine receptor; experiment: cAMP enzyme immunoassay, antagonism of NECA, CHO-A1 cells; format: cell-based; details: read-out: Potency (pKB) / A1 (converted)
Text: cAMP enzyme immunoassay, antagonism of NECA, CHO-A1 cells on human A1 adenosine receptor

[6] = molecular target: T4, human A2A adenosine receptor (Homo sapiens, UniProt P29274); experiment: radioligand competition, [3H]ZM241385, HeLa-A2A membranes; format: binding
T4 construct: gene ADORA2A; full-length receptor; membranes of HeLa-A2A cells
T4 sequence (P29274 whole entry): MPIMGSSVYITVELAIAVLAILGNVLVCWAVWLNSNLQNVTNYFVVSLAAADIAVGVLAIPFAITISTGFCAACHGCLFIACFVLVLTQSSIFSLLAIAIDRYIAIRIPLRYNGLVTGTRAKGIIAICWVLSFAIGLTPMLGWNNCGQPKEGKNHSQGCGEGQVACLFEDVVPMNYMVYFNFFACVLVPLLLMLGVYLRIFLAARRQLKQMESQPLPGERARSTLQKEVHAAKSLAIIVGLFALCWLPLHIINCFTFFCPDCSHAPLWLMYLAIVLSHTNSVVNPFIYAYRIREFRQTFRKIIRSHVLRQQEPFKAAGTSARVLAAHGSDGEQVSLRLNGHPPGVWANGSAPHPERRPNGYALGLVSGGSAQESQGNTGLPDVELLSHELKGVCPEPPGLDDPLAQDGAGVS
Text: radioligand competition, [3H]ZM241385, HeLa-A2A membranes on human A2A adenosine receptor

[7] = molecular target: T2, human A1 adenosine receptor; experiment: radioligand competition, [3H]DPCPX, CHO-A1 membranes; format: binding; remark: listed apart in the source
Text: radioligand competition, [3H]DPCPX, CHO-A1 membranes on human A1 adenosine receptor

Compound	Ki [1]	Ki ([2]; read-out: A1 (converted))	Ki [4]	Ki [6]	other results
Cn1cnc2c(N3CCOCC3)nc(-c3cccc(O)c3)nc21 [3e, 3-(9-Methyl-6-morpholino-9H-purin-2-yl)phenol]	–	692 nM	–	–	–
Cn1cnc2c(N3CCOCC3)nc(-c3cc(Cl)ccc3Cl)nc21 [3h, 4-(2-(2,5-Dichlorophenyl)-9-methyl-9H-purin-6-yl)morpholine]	–	–	–	–	inhibition at 10 µM [7]: 41 ± 2%
Cn1cnc2c(N3CCOCC3)nc(-c3cccc(Cl)c3)nc21 [3d, 4-(2-(3-Chlorophenyl)-9-methyl-9H-purin-6-yl)morpholine]	–	158 nM	–	–	–
Cn1cnc2c(N3CCOCC3)nc(-c3cc(O)ccc3O)nc21 [3i, 2-(9-Methyl-6-morpholino-9H-purin-2-yl)benzene-1,4-diol]	–	437 nM	479 nM	562 nM	–
COc1ccc(F)c(-c2nc(N3CCOCC3)c3ncn(C)c3n2)c1 [3l, 4-(2-(2-Fluoro-5-methoxyphenyl)-9-methyl-9H-purin-6-yl)morpholine]	5250 nM	–	–	–	–
Cn1cnc2c(N3CCOCC3)nc(-c3cc(Cl)ccc3O)nc21 [3k, 4-Chloro-2-(9-methyl-6-morpholino-9H-purin-2-yl)phenol]	–	123 nM	–	708 nM	–
Cn1cnc2c(N3CCOCC3)nc(-c3ccccc3O)nc21 [3c, 2-(9-Methyl-6-morpholino-9H-purin-2-yl)phenol]	–	309 nM	2000 nM	339 nM	–
COc1ccc(O)c(-c2nc(N3CCOCC3)c3ncn(C)c3n2)c1 [3j, 4-Methoxy-2-(9-methyl-6-morpholino-9H-purin-2-yl)phenol]	–	525 nM	1660 nM	1230 nM	–
Cn1cnc2c(N3CCOCC3)nc(-c3ccccc3Cl)nc21 [3a, 4-(2-(2-Chlorophenyl)-9-methyl-9H-purin-6-yl)morpholine]	–	–	–	–	inhibition at 10 µM [7]: 36 ± 1%
Cn1cnc2c(N3CCOCC3)nc(-c3cccc(O)c3O)nc21 [3g, 3-(9-Methyl-6-morpholino-9H-purin-2-yl)benzene-1,2-diol]	–	–	–	–	inhibition at 10 µM [7]: 33 ± 0.3%
COc1ccccc1-c1nc(N2CCOCC2)c2ncn(C)c2n1 [3b, 4-(2-(2-Methoxyphenyl)-9-methyl-9H-purin-6-yl)morpholine]	–	–	–	–	inhibition at 10 µM [7]: 22 ± 1%
Cn1cnc2c(N3CCOCC3)nc(-c3ccc(Cl)cc3)nc21 [3f, 4-(2-(4-Chlorophenyl)-9-methyl-9H-purin-6-yl)morpholine]	–	–	–	–	inhibition at 10 µM [7]: 37 ± 4%

Now from value to compound, other results behind:

Ki [1]	Ki ([2]; read-out: A1 (converted))	Ki [4]	Ki [6]	Compound	other results
69.2 nM	1070 nM	–	–	Clc1ccc(Cl)c(-c2nc(N3CCOCC3)c3nc[nH]c3n2)c1 [3t, 4-(2-(2,5-Dichlorophenyl)-9H-purin-6-yl)morpholine]	–
14.8 nM	–	398 nM	–	COc1ccc(F)c(-c2nc(N3CCOCC3)c3nc[nH]c3n2)c1 [3v, 4-(2-(2-Fluoro-5-methoxyphenyl)-9H-purin-6-yl)morpholine]	Ki ([2]; read-out: pKi (converted)): > 10000 nM; Kb [3]: 5.75 nM
23.4 nM	5.89 nM	36.3 nM	70.8 nM	Fc1ccc(F)c(-c2nc(N3CCOCC3)c3nc[nH]c3n2)c1 [3x, 4-(2-(2,5-Difluorophenyl)-9H-purin-6-yl)morpholine]	Kb [5]: 5.62 nM
257 nM	64.6 nM	138 nM	107 nM	Oc1ccccc1-c1nc(N2CCOCC2)c2nc[nH]c2n1 [3n, 2-(6-Morpholino-9H-purin-2-yl)phenol]	–
33.9 nM	95.5 nM	–	–	Clc1ccc(-c2nc(N3CCOCC3)c3nc[nH]c3n2)cc1 [3q, 4-(2-(4-Chlorophenyl)-9H-purin-6-yl)morpholine]	–
39.8 nM	17.8 nM	75.9 nM	46.8 nM	Clc1cccc(-c2nc(N3CCOCC3)c3nc[nH]c3n2)c1 [3o, 4-(2-(3-Chlorophenyl)-9H-purin-6-yl)morpholine]	–
–	89.1 nM	617 nM	–	Oc1ccc(Cl)cc1-c1nc(N2CCOCC2)c2nc[nH]c2n1 [3u]	–
468 nM	32.4 nM	–	550 nM	Oc1cccc(-c2nc(N3CCOCC3)c3nc[nH]c3n2)c1 [3p, 3-(6-Morpholino-9H-purin-2-yl)phenol]	–
70.8 nM	–	–	–	Clc1ccc(-c2nc(N3CCOCC3)c3nc[nH]c3n2)cc1Cl [3r, 4-(2-(3,4-Dichlorophenyl)-9H-purin-6-yl)morpholine]	–
–	525 nM	–	–	Cn1cnc2c(N3CCOCC3)nc(-c3cc(F)ccc3F)nc21 [3m, 4-(2-(2,5-Difluorophenyl)-9-methyl-9H-purin-6-yl)morpholine]	–
955 nM	–	–	–	FC(F)(F)c1cc(-c2nc(N3CCOCC3)c3nc[nH]c3n2)ccc1Cl [3s, 4-(2-(4-Chloro-3-(trifluoromethyl)phenyl)-9H-purin-6-yl)morpholine]	–
